target: human ether a go-go related gene (hERG) K+ channel (Homo sapiens (Human), UniProt Q12809); assay: hERG assay, IonWorks patch clamp electrophysiology; assay type: cell-based; conditions: Chinese Hamster Lung cell line stably expressing hERG; max assay concentration 11 uM
Procedure: Compounds of the invention were tested for inhibition of the human ether a go-go related gene (hERG) K^+ channel using IonWorks patch clamp electrophysiology. 8 Point concentration-response curves were generated on two occasions using 3-fold serial dilutions from the maximum assay concentration (11 uM). Electrophysiological recordings were made from a Chinese Hamster Lung cell line stably expressing the full length hERG channel. Single cell ion currents were measured in the perforated patch clamp configuration (100 ug/mL amphoterocin) at room temperature using an IonWorks Quattro instrument. The internal solution contained 140 mM KCl, 1 mM MgCl2, 1 mM EGTA and 20 mM HEPES and was buffered to pH 7.3. The external solution contained 138 mM NaCl, 2.7 mM KCl, 0.9 mM CaCl2, 0.5 mM MgCl2, 8 mM Na2HPO4 and 1.5 mM KH2PO4, and was buffered to pH 7.3. […] This sequence was repeated 5 times at a frequency of 0.25 Hz. Currents were measured from the tail step at the 5th pulse, and referenced to the holding current. Compounds were incubated for 6-7 min prior to a second measurement of the hERG signal using an identical pulse train. […] A control compound (quinidine) was used (see Table 20 below).

human ether a go-go related gene (hERG) K+ channel, sequence (Q12809 whole entry): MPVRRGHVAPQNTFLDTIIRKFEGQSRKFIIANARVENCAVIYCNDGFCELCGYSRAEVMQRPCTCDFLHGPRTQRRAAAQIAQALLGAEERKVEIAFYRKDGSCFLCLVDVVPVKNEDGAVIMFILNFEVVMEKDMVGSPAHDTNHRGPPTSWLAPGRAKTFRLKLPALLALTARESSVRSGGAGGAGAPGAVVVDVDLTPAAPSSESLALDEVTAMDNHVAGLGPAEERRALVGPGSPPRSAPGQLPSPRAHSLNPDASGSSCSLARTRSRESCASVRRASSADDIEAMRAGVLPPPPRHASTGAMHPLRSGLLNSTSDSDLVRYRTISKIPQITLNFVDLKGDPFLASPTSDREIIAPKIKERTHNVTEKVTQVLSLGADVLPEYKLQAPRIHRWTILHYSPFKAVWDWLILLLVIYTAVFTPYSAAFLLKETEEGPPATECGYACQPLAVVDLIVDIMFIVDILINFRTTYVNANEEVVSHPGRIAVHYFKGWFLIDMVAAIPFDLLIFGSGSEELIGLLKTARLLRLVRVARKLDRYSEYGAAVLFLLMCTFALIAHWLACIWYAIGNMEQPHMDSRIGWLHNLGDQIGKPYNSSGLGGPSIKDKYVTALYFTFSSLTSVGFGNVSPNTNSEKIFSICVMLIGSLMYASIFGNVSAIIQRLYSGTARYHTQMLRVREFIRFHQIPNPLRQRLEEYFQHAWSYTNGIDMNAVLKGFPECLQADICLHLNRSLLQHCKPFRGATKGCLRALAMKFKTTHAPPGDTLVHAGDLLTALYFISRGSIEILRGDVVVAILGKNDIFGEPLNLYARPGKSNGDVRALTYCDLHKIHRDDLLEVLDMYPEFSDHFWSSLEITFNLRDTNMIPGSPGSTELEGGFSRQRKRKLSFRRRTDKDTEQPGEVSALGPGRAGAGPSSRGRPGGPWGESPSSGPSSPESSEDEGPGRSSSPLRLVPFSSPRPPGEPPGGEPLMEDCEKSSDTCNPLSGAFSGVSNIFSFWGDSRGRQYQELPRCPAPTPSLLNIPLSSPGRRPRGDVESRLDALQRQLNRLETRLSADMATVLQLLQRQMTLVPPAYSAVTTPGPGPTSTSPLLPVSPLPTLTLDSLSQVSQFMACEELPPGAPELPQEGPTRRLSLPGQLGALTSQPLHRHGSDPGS

Compound	IC50 [µM]
Cc1ccc(-n2c(-c3cnc(N4CCOCC4)nc3)nc3ccncc32)cc1 [Example 57, 4-{5-[3-(4-Methylphenyl)-3H-imidazo[4,5-c]pyridin-2-yl]pyrimidin-2-yl}morpholine]	> 10
Cc1ccc(-n2c(-c3ccc(N4CCOCC4)nc3)nc3ccncc32)cc1 [Example 63, 4-{5-[3-(4-Methylphenyl)-3H-imidazo[4,5-c]pyridin-2-yl]pyridin-2-yl}morpholine]	> 10
Cc1ccc(-n2c(-c3ccc(N4CCOCC4)nc3)nc3ccncc32)cn1 [Example 64, 4-{5-[3-(6-Methylpyridin-3-yl)-3H-imidazo[4,5-c]pyridin-2-yl]pyridin-2-yl}morpholine]	> 10
CN(C)c1ccc(-c2nc3ccncc3n2-c2ccc(F)cc2)cn1 [Example 71, 5-[3-(4-Fluorophenyl)-3H-imidazo[4,5-c]pyridin-2-yl]-N,N-dimethylpyridin-2-amine]	> 10
Fc1cc(Cl)ccc1-n1c(-c2cnc(N3CCOCC3)nc2)nc2ccncc21 [Example 77, 4-{5-[3-(4-Chloro-2-fluorophenyl)-3H-imidazo[4,5-c]pyridin-2-yl]pyrimidin-2-yl}morpholine]	> 10
Fc1cc(Cl)ccc1-n1c(-c2ccc(N3CCOCC3)nc2)nc2ccncc21 [Example 80, 4-{5-[3-(4-Chloro-2-fluorophenyl)-3H-imidazo[4,5-c]pyridin-2-yl]pyridin-2-yl}morpholine]	> 10
NC(=O)NC1CCN(c2ccc(-c3nc4ccncc4n3-c3ccc(Cl)cc3)cn2)CC1 [Example 91, (1-{5-[3-(4-Chlorophenyl)-3H-imidazo[4,5-c]pyridin-2-yl]pyridin-2-yl}piperidin-4-yl)urea; bis(trifluoroacetic acid)]	> 10
c1ccc(-n2c(-c3cnc(N4CCOCC4)nc3)nc3ccncc32)cc1 [Example 95, 4-(5-{3-Phenyl-3H-imidazo[4,5-c]pyridin-2-yl}pyrimidin-2-yl)morpholine]	> 10
Fc1ccc(-n2c(-c3cnc(N4CCOCC4)c(F)c3)nc3ccncc32)cc1 [Example 98, 4-{3-Fluoro-5-[3-(4-fluorophenyl)-3H-imidazo[4,5-c]pyridin-2-yl]pyridin-2-yl}morpholine]	> 10
Nc1ccc(-c2nc3ccncc3n2-c2ccc(Cl)cc2)cn1 [Example 110, 5-[3-(4-Chlorophenyl)-3H-imidazo[4,5-c]pyridin-2-yl]pyridin-2-amine]	> 10
COCCN(C)c1ncc(-c2nc3ccncc3n2-c2ccc(C)cc2)cn1 [Example 117, N-(2-Methoxyethyl)-N-methyl-5-[3-(4-methylphenyl)-3H-imidazo[4,5-c]pyridin-2-yl]pyrimidin-2-amine]	> 10

Source: patent publication US9951068B2 (Proximagen Limited, priority 2013, dated 2018)
